Measured values taken from patent publication US4331670A (priority 1979, dated 1982).

Columns and labels:
[1] = test system: Pyricularia orzae; assay: whole plant or invertebrate; type: in vivo, Pyricularia orzae (rice plant, Chukyo Asahi); conditions: in Oryza sativa, 120 h, read-out: Protective value
[2] = test system: Phytophthora infestans; type: cell-based; conditions: PDA medium; fungus A: Phytophthora infestans
[3] = test system: Rhizoctonia solani; assay: whole plant or invertebrate; type: in vivo, Rhizoctonia solani (rice plant, Chukyo Asahi); conditions: in Oryza sativa, 120 h, read-out: Preventive value
[4] = test system: Collectotrichum lagenarium; assay: Test 3: protective value on cucumber inoculated with Collectotrichum lagenarium; type: in vivo, Collectotrichum lagenarium (cucumber plant, Suyo); conditions: 500 ppm, 10 ml sprayed; lesions six days after inoculation
Protocol: In each unglazed pot having a diameter of 9 cm, cucumber plant (Suyo) was cultured. At one leaf stage, 10 ml. of each solution of each active ingredient having a concentration of 500 ppm was sprayed by a spray gun. After maintaining the pot in a green-house at 24° to 25° C. for one day, each spore suspension of Collectotrichum lagenarium was sprayed. Six days after the inoculation, number of lesions on the first leaf of seedling was observed. The protective value was calculated as Test 1.

[5] = test system: Alternaria solani; assay: Test 5: minimum growth inhibition concentration on PDA medium; type: cell-based; conditions: fungus C: Alternaria solani
Protocol: (§1) A mixture of 9 ml. of a potato-glucose-agar medium (PDA medium) and 1 ml. of each active ingredient was poured into each Petri-dish to be solidified. […] The following fungi were used.

[6] = test system: Diaporthe citri; assay: as above; type: cell-based; conditions: fungus B: Diaporthe citri
Protocol: as §1

[7] = test system: Venturia inaequalie; assay: as above; type: cell-based; conditions: fungus D: Venturia inaequalie
Protocol: as §1

[8] = test system: Callosobruchus chinensis; assay: Test 7: mortality of adults of Callosobruchus chinensis on film in Petri-dish; type: in vivo; conditions: 400 μg per Petri-dish of 9 cm, 25° C., 24 hours, read-out: Percent mortality
Protocol: Each active ingredient was dissolved in acetone to prepare each solution having the specific concentration. 1 Ml. of the solution (400 μg. of each active ingredient) was uniformly adhered on the inner bottom surface of Petri-dish having a diameter of 9 cm to form a film. In the dish, 15 of adults of Callosobruchus chinensis were charged and the dish was covered with a cap and kept in a constant temperature chamber at 25° C. for 24 hours. Each percent mortality was calculated as that of Test 6.

[9] = test system: Tetranychus telarius (L); assay: Test 6: mortality of larvae and adults of Tetranychus telarius on kidney bean leaf; type: in vivo; conditions: foliar, 72 h, leaf dipped, wettable powder of Composition No. 5, three days after treatment, read-out: Percent mortality
Protocol: Young seedling of kidney bean treated to cut off leaves except one primordial leaf was transplanted in a cup and about 30 of larvae and adults of Tetranychus telarius (L) were inoculated on the primordial leaf. This was dipped for 10 seconds in each solution obtained by diluting each wettable powder of Composition No. 5 containing each active ingredient with water at the concentration of 800 ppm and was dried in air and was kept in a constant temperature chamber with lighting at 28° C. Three days after the treatment, mortality was measured and each percent mortality was calculated as follows. [formula]

[10] = test system: Sphaerotheca fuliginea; assay: whole plant or invertebrate; type: in vivo, Sphaerotheca fuliginea (cucumber plant, Suyo); conditions: Podosphaera fuliginea, in Cucumis sativus, 240 h; read-out: Protective value
[11] = test system: Plasmopara viticola; assay: whole plant or invertebrate; type: in vivo, Plasmopara viticola (cucumber plant, Suyo); conditions: in Cucumis sativus, 144 h, read-out: Protective value
[12] = test system: Botrytis cinerea; assay: Test 9: protective value on cucumber inoculated with Botrytis cinerea; type: in vivo, Botrytis cinerea (cucumber plant, Suyo); conditions: 72 h, 250 ppm, 10 ml sprayed, lesion length three days after inoculation
Protocol: In each unglazed pot having a diameter of 9 cm, cucumber plant (Suyo) was cultured. At one leaf stage, 10 ml. of each solution of each active ingredient having a concentration of 250 ppm was sprayed by a spray gun. After maintaining the pot in a green-house at 24° to 25° C. for one day, a disc (punched agar disc) obtained by culturing Botrytis cinerea on a potato-glucose-agar medium (PDA medium) was put on the leaf of cucumber to inoculate them. Three days after the inoculation, lengths of lesions were measured and each protective value was calculated as Test 2.
In accordance with the test, except the concentration of the active ingredient was decreased, the comparative tests of Compound No. 7 and Reference compound were carried out.

O=[N+]([O-])c1cc(C(F)(F)F)cc([N+](=O)[O-])c1Nc1ncc(Cl)cc1Cl [compound 3, N-(3,5-dichloro-2-pyridyl)-2,6-dinitro-4-trifluoromethylaniline]
pest or weed control at 100 ppm [1]: 100%
minimum growth inhibition concentration [2]: 100
pest or weed control at 100 ppm [3]: 100%
Protective value [4]: 100%
minimum growth inhibition concentration [5]: 10
minimum growth inhibition concentration [6]: 100
minimum growth inhibition concentration [7]: < 1
mortality at 400 µg/dish [8]: 100%
mortality at 800 ppm [9]: 100%
pest or weed control at 500 ppm [10]: 100%

O=[N+]([O-])c1cc(C(F)(F)F)c(Cl)c([N+](=O)[O-])c1Nc1ncc(Cl)cc1Cl [compound 4, N-(3,5-dichloro-2-pyridyl)-2,6-dinitro-3-chloro-4-trifluoromethylaniline]
pest or weed control at 100 ppm [1]: 100%
minimum growth inhibition concentration [2]: > 100
pest or weed control at 100 ppm [3]: 93%
Protective value [4]: 100%
minimum growth inhibition concentration [5]: 100
minimum growth inhibition concentration [6]: 100
minimum growth inhibition concentration [7]: < 1
pest or weed control at 500 ppm [11]: 100%

Cc1nc(Nc2c([N+](=O)[O-])cc(C(F)(F)F)c(Cl)c2[N+](=O)[O-])c(Cl)cc1Cl [compound 8, N-(3,5-dichloro-6-methyl-2-pyridyl)2,6-dinitro-3-chloro-4-trifluoromethylaniline]
pest or weed control at 100 ppm [1]: 100%
pest or weed control at 100 ppm [3]: 90%
Protective value [4]: 100%

Cc1c(Cl)cnc(Nc2c([N+](=O)[O-])cc(C(F)(F)F)c(Cl)c2[N+](=O)[O-])c1Cl [compound 12]
pest or weed control at 100 ppm [1]: 100%
Protective value [4]: 75%

O=[N+]([O-])c1cc(C(F)(F)F)c(Cl)c([N+](=O)[O-])c1Nc1ccc(Cl)nc1Cl [compound 14]
pest or weed control at 100 ppm [1]: 100%
pest or weed control at 100 ppm [3]: 100%
Protective value [4]: 100%
pest or weed control at 250 ppm [12]: 95%
pest or weed control at 500 ppm [10]: 95%

O=[N+]([O-])c1cc(C(F)(F)F)c(Cl)c([N+](=O)[O-])c1Nc1ncc(Br)cc1Cl [compound 20]
pest or weed control at 100 ppm [1]: 100%
pest or weed control at 500 ppm [11]: 100%

O=[N+]([O-])c1cc(C(F)(F)F)cc([N+](=O)[O-])c1Nc1nc(Cl)c(Br)cc1C(F)(F)F [compound 26]
pest or weed control at 100 ppm [1]: 100%
pest or weed control at 100 ppm [3]: 100%
Protective value [4]: 90%
pest or weed control at 250 ppm [12]: 85%
pest or weed control at 500 ppm [11]: 93%
mortality at 800 ppm [9]: 100%
pest or weed control at 500 ppm [10]: 100%

O=[N+]([O-])c1cc(C(F)(F)F)c(Cl)c([N+](=O)[O-])c1Nc1nc(Cl)c(C(F)(F)F)cc1Br [compound 33]
pest or weed control at 100 ppm [1]: 100%
pest or weed control at 100 ppm [3]: 100%
pest or weed control at 250 ppm [12]: 100%
pest or weed control at 500 ppm [11]: 85%
pest or weed control at 500 ppm [10]: 100%

O=[N+]([O-])c1cc(C(F)(F)F)cc([N+](=O)[O-])c1Nc1nc(Cl)c(C(F)(F)F)cc1Cl [compound 34]
pest or weed control at 100 ppm [1]: 100%
pest or weed control at 100 ppm [3]: 100%
pest or weed control at 250 ppm [12]: 100%
pest or weed control at 500 ppm [11]: 83%
mortality at 800 ppm [9]: 100%
pest or weed control at 500 ppm [10]: 100%

CC(=O)N(c1ncc(C(F)(F)F)cc1Cl)c1c([N+](=O)[O-])cc(C(F)(F)F)c(Cl)c1[N+](=O)[O-] [compound 88, N-acetyl-N-(3-chloro-5-trifluoromethyl-2-pyridyl)-2,6-dinitro-3-chloro-4-trifluoromethylaniline]
pest or weed control at 100 ppm [3]: 100%
pest or weed control at 500 ppm [11]: 100%
